In ChEMBL document CHEMBL1150944, “New glycosides from ajuga decumbens” (J Nat Prod, 1998):

Assays:
[1] = Cytotoxicity against human Raji cells assessed as cell viability at 1000 molar ratio after 48 hrs; assay type: cell-based; conditions: read-out: Activity
[2] = test system: Raji; assay: Inhibition of TPA-induced EBV-early antigen activation in human Raji cells at 10 molar ratio after 48 hrs relative to TPA by indirect immunofluorescence technique; values are per cent of control; conditions: human gammaherpesvirus 4
[3] = test system: Raji; assay: Inhibition of TPA-induced EBV-early antigen activation in human Raji cells at 100 molar ratio after 48 hrs relative to TPA by indirect immunofluorescence technique; values are per cent of control; conditions: human gammaherpesvirus 4
[4] = Cytotoxicity against human Raji cells assessed as cell viability at 500 molar ratio after 48 hrs; assay type: cell-based; conditions: read-out: Activity
[5] = test system: Raji; assay: Inhibition of TPA-induced EBV-early antigen activation in human Raji cells at 1000 molar ratio after 48 hrs relative to TPA by indirect immunofluorescence technique; values are per cent of control; conditions: human gammaherpesvirus 4
[6] = Cytotoxicity against human Raji cells assessed as cell viability at 100 molar ratio after 48 hrs; assay type: cell-based; conditions: read-out: Activity
[7] = test system: Raji; assay: Inhibition of TPA-induced EBV-early antigen activation in human Raji cells at 500 molar ratio after 48 hrs relative to TPA by indirect immunofluorescence technique; values are per cent of control; conditions: human gammaherpesvirus 4
[8] = Cytotoxicity against human Raji cells assessed as cell viability at 10 molar ratio after 48 hrs; assay type: cell-based; conditions: read-out: Activity

Structure (SMILES) | viability at 48 h, 1000 molar ratio [1] [%] | level, % of control [2] [%] | level, % of control [3] [%] | viability at 48 h, 500 molar ratio [4] [%] | level, % of control [5] [%] | viability at 48 h, 100 molar ratio [6] [%] | level, % of control [7] [%] | viability at 48 h, 10 molar ratio [8] [%]
CC(=O)O[C@@]1(C)C[C@@H](O)[C@]2(O)C=CO[C@@H](O[C@@H]3O[C@H](CO)[C@@H](O)[C@H](O)[C@H]3O)[C@@H]21 | 60 | 89.5 | 62.6 | > 80 | 0 | > 80 | 19.9 | > 80
C[C@]1(O)C[C@@H](O)[C@]2(O)C=CO[C@@H](O[C@H]3O[C@H](CO)[C@@H](O)[C@H](O)[C@H]3O)[C@@H]21 |  | 100 | 80.1 |  | 0 |  | 52.7 | 
CC(CO)c1cc2c(c(O)c1O[C@@H]1O[C@H](CO)[C@@H](O)[C@H](O)[C@H]1O)[C@@]1(C)CCC[C@](C)(CO[C@@H]3O[C@H](CO)[C@@H](O)[C@H](O)[C@H]3O)[C@@H]1CC2 (stereo partly specified) [AJUGASIDE A] | 60 | 91 | 68.3 | > 80 | 0 | > 80 | 24.9 | > 80
COc1ccc(CCO[C@@H]2O[C@H](CO)[C@@H](O)[C@H](O[C@@H]3O[C@@H](C)[C@H](O)[C@@H](O)[C@H]3O)[C@H]2O)cc1O [DARENDOSIDE A] | 70 | 100 | 81.6 | > 80 | 22.6 | > 80 | 53.8 | > 80
COc1ccc(CCO[C@@H]2O[C@H](CO)[C@@H](OC(=O)/C=C/c3ccc(O)c(OC)c3)[C@H](O[C@@H]3O[C@@H](C)[C@H](O)[C@@H](O)[C@H]3O[C@@H]3O[C@H](CO)[C@H](O)[C@H](O)[C@H]3O)[C@H]2O)cc1O [GALACTOSYLMARTYNOSIDE] | 60 | 98.5 | 76 | > 80 | 0 | > 80 | 31.8 | > 80
C[C@]1(O)C[C@@H](O)[C@]2(O)C=CO[C@@H](O[C@@H]3O[C@H](CO)[C@@H](O)[C@H](O)[C@H]3O)[C@@H]21 [HARPAGIDE] | 60 |  |  | > 80 |  | > 80 |  | > 80
COc1ccc(CCO[C@@H]2O[C@H](CO)[C@@H](OC(=O)/C=C/c3ccc(O)c(OC)c3)[C@H](O[C@@H]3O[C@@H](C)[C@H](O)[C@@H](O)[C@H]3O)[C@H]2O)cc1O [MARTYNOSIDE A] | 60 | 89.4 | 66.4 | > 80 | 0 | > 80 | 31.7 | > 80
CC(=O)O[C@@]1(C)CC[C@]2(O)C=CO[C@@H](O[C@@H]3O[C@H](CO)[C@@H](O)[C@H](O)[C@H]3O)[C@@H]21 [REPTOSIDE] | 60 | 90.3 | 71.3 | > 80 | 0 | > 80 | 22.4 | > 80
